According to patent publication US20230089247A1, “NOVEL COMPOUNDS SUITABLE FOR THE TREATMENT OF DYSLIPIDEMIA” (ZYDUS LIFESCIENCES LIMITED, priority 2019, published 2023):

Biological target: PCSK9 (Homo sapiens, UniProt Q8NBP7)
Assay: BODIPY-LDL uptake assay in HepG2 cells
Type: cell-based
Settings: 5 μg/ml PCSK9, BODIPY-LDL
Procedure: BODIPY-LDL Uptake Assay in HepG2 Cells.
An established assay for PCSK9 inhibition features uptake of fluorescently labeled LDL nanoparticles (BODIPY-LDL) by hepatocytes and uptake of the BODIPY-containing particles is maximized in the absence of PCSK9.
In the LDL uptake assay, HepG2 cells were seeded at a density of 6×10^4 cells/well in a 96-well plate. After 24 h, the test compounds at various concentrations were pre-incubated with 5 μg/ml PCSK9 in 0.2% DMSO for 60 min prior to the addition on to the cells. After 16 h the medium was removed and 1 μg/ml BODIPY-LDL (Invitrogen) in serum free media was added and incubated for 5 h. Then the cells were washed twice with 0.25% BSA in PBS. Then the fluorescence of the cells in PBS was measured using TECAN multimode reader (Excitation: 485 nm and Emission: 520 nm). The readings were taken in triplicate and the final values were normalized with the protein concentration from respective wells. The wells without test compound containing external PCSK9 is considered as zero uptake and the one without PCSK9 was considered as 100% uptake. The percentage increase in LDL uptake for the test compounds were calculated using these values.

Sequence of PCSK9 (Q8NBP7 153-692): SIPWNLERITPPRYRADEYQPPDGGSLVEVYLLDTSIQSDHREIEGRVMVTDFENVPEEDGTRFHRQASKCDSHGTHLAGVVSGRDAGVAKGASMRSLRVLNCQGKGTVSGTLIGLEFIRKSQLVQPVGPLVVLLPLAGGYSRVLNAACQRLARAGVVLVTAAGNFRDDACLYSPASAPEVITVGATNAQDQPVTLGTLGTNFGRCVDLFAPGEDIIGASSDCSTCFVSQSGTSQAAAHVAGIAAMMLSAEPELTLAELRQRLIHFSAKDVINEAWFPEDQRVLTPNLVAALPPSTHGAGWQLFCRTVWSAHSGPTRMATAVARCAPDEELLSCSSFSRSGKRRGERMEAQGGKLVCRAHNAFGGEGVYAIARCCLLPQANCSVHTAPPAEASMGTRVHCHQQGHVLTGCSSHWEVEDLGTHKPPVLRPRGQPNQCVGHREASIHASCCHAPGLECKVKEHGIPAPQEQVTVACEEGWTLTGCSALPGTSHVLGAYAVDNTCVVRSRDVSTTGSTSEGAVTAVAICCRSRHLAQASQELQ

| Compound | % increase in LDL Uptake (1 μM test compound) [%] | % increase in LDL Uptake (10 μM test compound) [%] | % increase in LDL Uptake (30 μM test compound) [%] |
| --- | --- | --- | --- |
| COC1(c2ccc(C3(O)CCN(c4ccc(C(F)(F)F)cc4)CC3)cc2)COC1 [Example 73, 4-(4-(3-methoxyoxetan-3-yl)phenyl)-1-(4-(trifluoromethyl)phenyl) piperidin-4-ol] | 0 | 8 | 0 |
| COC1(c2ccc(NC(=O)N3CC4CN(c5ccc(C(F)(F)F)cc5)CC4C3)cc2)COC1 (stereo not drawn) [Example 74, N-(4-(3-methoxyoxetan-3-yl)phenyl)-5-(4-(trifluoromethyl)phenyl) hexahydropyrrolo[3,4-c]pyrrole-2(1H)-carboxamide] | 34 | 42 | 100 |
| O=C(Nc1ccc(C2(O)COC2)cc1)N1CC2CN(c3ccc(C(F)(F)F)cc3)CC2C1 (stereo not drawn) [Example 75, N-(4-(3-hydroxyoxetan-3-yl)phenyl)-5-(4-(trifluoromethyl)phenyl) hexahydropyrrolo[3,4-c]pyrrole-2(1H)-carboxamide] | 20 | 38 | 27 |
| O=C(O)c1cc(C2(O)COC2)ccc1N1CCC(c2ccc(C(F)(F)F)cc2)CC1 [Example 77, 5-(3-hydroxyoxetan-3-yl)-2-(4-(4-(trifluoromethyl)phenyl)piperidin-1-yl)benzoic acid] | 0 | 13 | 37 |
| OC1(c2cc(N3CCOCC3)cc(N3CCC(c4ccc(C(F)(F)F)cc4)CC3)c2)COC1 [Example 84, 3-(3-morpholino-5-(4-(4-(trifluoromethyl)phenyl)piperidin-1-yl)phenyl) oxetan-3-ol] | 6 | 13 | 17 |
| O=C(c1ccc(C2(O)COC2)cc1)N1Cc2cn(-c3ccc(C(F)(F)F)cc3)nc2C1 [Example 89, (4-(3-hydroxyoxetan-3-yl)phenyl)(2-(4-(trifluoromethyl)phenyl)-2,6-dihydropyrrolo[3,4-c]pyrazol-5(4H)-yl)methanone] | 0 | 5 | 159 |
| COC1(c2ccc(C(=O)N3CC4CC(OC)(c5ccc(C(F)(F)F)cc5)CC4C3)cc2)COC1 (stereo not drawn) [Example 92, (5-methoxy-5-(4-(trifluoromethyl)phenyl)hexahydrocyclopenta[c]pyrrol-2(1H)-yl)(4-(3-methoxyoxetan-3-yl)phenyl)methanone] | −2 | −8 | 64 |
| O=C(c1ccc(C2(O)COC2)cc1)N1Cc2cn(-c3ccc(C(F)(F)F)cc3)cc2C1 [Example 93, (4-(3-hydroxyoxetan-3-yl)phenyl)(5-(4-(trifluoromethyl)phenyl)-3,5-dihydropyrrolo[3,4-c]pyrrol-2(1H)-yl)methanone] | 0 | 90 | 144 |
| O=C(c1cccc(C2(O)COC2)c1)N1CC2=C(C1)CN(c1ccc(C(F)(F)F)cc1)C2 [Example 96, (3-(3-hydroxyoxetan-3-yl)phenyl)(5-(4-(trifluoromethyl)phenyl)-3,4,5,6-tetrahydropyrrolo[3,4-c]pyrrol-2(1H)-yl)methanone] | 0 | 28 | 75 |
| COC1(c2cccc(C(=O)N3CC4=C(C3)CN(c3ccc(C(F)(F)F)cc3)C4)c2)COC1 [Example 97, (3-(3-methoxyoxetan-3-yl)phenyl)(5-(4-(trifluoromethyl)phenyl)-3,4,5,6-tetrahydropyrrolo[3,4-c]pyrrol-2(1H)-yl)methanone] | 0 | 0 | 24 |
| O=S(=O)(c1ccc(C2(O)COC2)cc1)N1CC2CN(c3ccc(C(F)(F)F)cc3)CC2C1 (stereo not drawn) [Example 98, 3-(4-((5-(4-(trifluoromethyl)phenyl)hexahydropyrrolo[3,4-c]pyrrol-2(1H)-yl)sulfonyl)phenyl)oxetan-3-ol] | 0 | 124 | 3 |
| O=C(c1ccc(C2(O)COC2)cc1)N1CCC2(CC1)CCN(c1ccc(C(F)(F)F)cc1)CC2 [Example 99, (4-(3-hydroxyoxetan-3-yl)phenyl)(9-(4-(trifluoromethyl)phenyl)-3,9-diazaspiro[5.5]undecan-3-yl)methanone] | 50 | 0 | 0 |
| O=C(c1cccc(C2(O)COC2)c1)N1CCC2(CC1)CCN(c1ccc(C(F)(F)F)cc1)CC2 [Example 100, (3-(3-hydroxyoxetan-3-yl)phenyl)(9-(4-(trifluoromethyl)phenyl)-3,9-diazaspiro[5.5]undecan-3-yl)methanone] | 29 | 0 | 0 |
| O=C(c1ccc(C2(O)COC2)cc1)N1CCC(c2ccc(C(F)(F)F)cc2)C1 (stereo not drawn) [Example 102, (4-(3-hydroxyoxetan-3-yl)phenyl)(3-(4-(trifluoromethyl)phenyl)pyrrolidin-1-yl)methanone] | 4 | 31 | 25 |
| CCOC1(c2ccc(C(=O)N3CC4=C(C3)CN(c3ccc(C(F)(F)F)cc3)C4)cc2)COC1 [Example 104, (4-(3-ethoxyoxetan-3-yl)phenyl)(5-(4-(trifluoromethyl)phenyl)-3,4,5,6-tetrahydropyrrolo[3,4-c]pyrrol-2(1H)-yl)methanone] | 1 | 30 | 18 |
| O=C(c1ccc(C2(O)COC2)cc1)N1CCc2cc(-c3ccc(C(F)(F)F)cc3)ccc21 [Example 107, (4-(3-hydroxyoxetan-3-yl)phenyl)(5-(4-(trifluoromethyl)phenyl)indolin-1-yl)methanone] | 27 | 0 | 0 |
| COC1(c2ccc(C(=O)N3CCC(c4ccc(C(F)(F)F)c(-n5cnc(C)c5)c4)CC3)cc2)COC1 [Example 108, (4-(3-methoxyoxetan-3-yl)phenyl)(4-(3-(4-methyl-1H-imidazol-1-yl)-4-(trifluoromethyl)phenyl)piperidin-1-yl)methanone] | 9 | 26 | 32 |
| CC(C)(CCCCCOC1(c2ccc(C(=O)N3CCC(c4ccc(C(F)(F)F)cc4)CC3)cc2)COC1)C(=O)O [Example 109, 2,2-dimethyl-7-((3-(4-(4-(4-(trifluoromethyl)phenyl)piperidine-1-carbonyl)phenyl)oxetan-3-yl)oxy)heptanoic acid] | 5 | 29 | 31 |
| N#CC1(c2ccc(C(F)(F)F)cc2)CCN(C(=O)c2ccc(C3(O)COC3)cc2)CC1 [Example 116, 1-(4-(3-hydroxyoxetan-3-yl)benzoyl)-4-(4-(trifluoromethyl)phenyl)piperidine-4-carbonitrile] | 7 | 35 | 98 |
| O=C(c1cccc(C2(O)COC2)c1)N1CCC(c2ccc(C(F)(F)F)c(F)c2)CC1 [Example 121, (4-(3-fluoro-4-(trifluoromethyl)phenyl)piperidin-1-yl)(3-(3-hydroxyoxetan-3-yl)phenyl)methanone] | 0 | 22 | 18 |
| O=C(c1cccc(C2(O)COC2)c1)N1CCC(c2ccccc2C(F)(F)F)CC1 [Example 122, (3-(3-hydroxyoxetan-3-yl)phenyl)(4-(2-(trifluoromethyl)phenyl)piperidin-1-yl)methanone] | 0 | 16 | 12 |
| CCOC1(c2ccc(C(=O)N3CCCC(c4ccc(C(F)(F)F)cc4)C3)cc2)COC1 (stereo not drawn) [Example 123, (4-(3-ethoxyoxetan-3-yl)phenyl)(3-(4-(trifluoromethyl)phenyl)piperidin-1-yl)methanone] | 0 | 14 | 30 |
| Cc1ccc(C2=CC3CN(C(=O)c4ccc(C5(O)COC5)cc4)CC3C2)cc1 (stereo not drawn) [Example 130, (4-(3-hydroxyoxetan-3-yl)phenyl)(5-(p-tolyl)-3,3a,6,6a-tetrahydrocyclopenta[c]pyrrol-2(1H)-yl)methanone] | −19 | 20 | 74 |
| CSc1ccc(C2=CC3CN(C(=O)c4ccc(C5(O)COC5)cc4)CC3C2)cc1 (stereo not drawn) [Example 131] | −5 | 57 | −1 |
| O=C(c1ccc(C2(OCC3CC3)COC2)cc1)N1CC2CN(c3ccc(C(F)(F)F)cc3)CC2C1 (stereo not drawn) [Example 133, (4-(3-(cyclopropylmethoxy)oxetan-3-yl)phenyl)(5-(4-(trifluoromethyl)phenyl)hexahydropyrrolo[3,4-c]pyrrol-2(1H)-yl)methanone] | 22 | 28 | 32 |
